Measured values from the NIST ThermoML archive (doi:10.1016/j.jct.2018.04.005).
± gives the expanded uncertainty stated by the source.

Key:
[1] = 100 kPa, Liquid, Vibrating tube method
[2] = xn = mol fraction of the nth substance listed; conditions: 100 kPa, Liquid, Vibrating tube method

CCCCn1cc[n+](C)c1.F[B-](F)(F)F [1-butyl-3-methylimidazolium tetrafluoroborate]
[1]
Conditions | mass density [kg/m3]
293.15 K | 1202.47 ± 4
298.15 K | 1200.1 ± 4
303.15 K | 1195.48 ± 4
308.15 K | 1191.65 ± 4
313.15 K | 1187.83 ± 4
318.15 K | 1184.13 ± 4
323.15 K | 1180.33 ± 4

CCCCn1cc[n+](C)c1.F[P-](F)(F)(F)(F)F [1-butyl-3-methylimidazolium hexafluorophosphate]
[1]
Conditions | mass density [kg/m3]
293.15 K | 1370.73 ± 4
298.15 K | 1366.5 ± 4
303.15 K | 1361.63 ± 4
308.15 K | 1359.45 ± 4
313.15 K | 1355.23 ± 4
318.15 K | 1351.63 ± 4
323.15 K | 1347.23 ± 4

CCCC[n+]1ccn(C)c1.O=S(=O)([N-]S(=O)(=O)C(F)(F)F)C(F)(F)F
[1]
Conditions | mass density [kg/m3]
293.15 K | 1442.3 ± 4
298.15 K | 1435.96 ± 4
303.15 K | 1431.96 ± 4
308.15 K | 1427.23 ± 4
313.15 K | 1422.19 ± 4
318.15 K | 1417.89 ± 4
323.15 K | 1412.96 ± 4

COC(=O)OC [dimethyl carbonate]
[1]
Conditions | mass density [kg/m3]
293.15 K | 1069.83 ± 4
298.15 K | 1063.25 ± 4
303.15 K | 1056.63 ± 4
308.15 K | 1050.08 ± 4
313.15 K | 1043.44 ± 4
318.15 K | 1036.62 ± 4
323.15 K | 1029.88 ± 4

COC(=O)OC [dimethyl carbonate] + CCCCn1cc[n+](C)c1.F[P-](F)(F)(F)(F)F
[2], x2 = 0
Conditions | mass density [kg/m3]
293.15 K | 1069.83 ± 4
298.15 K | 1063.25 ± 4
303.15 K | 1056.63 ± 4
308.15 K | 1050.08 ± 4
313.15 K | 1043.44 ± 4
318.15 K | 1036.62 ± 4
323.15 K | 1029.88 ± 4

CCCCn1cc[n+](C)c1.F[P-](F)(F)(F)(F)F [1-butyl-3-methylimidazolium hexafluorophosphate] + COC(=O)OC
mass density [kg/m3], [2]
Conditions | x1 = 0.034 | x1 = 0.0734 | x1 = 0.1196 | x1 = 0.1744 | x1 = 0.2407 | x1 = 0.3222 | x1 = 0.4251 | x1 = 0.559 | x1 = 0.7404 | x1 = 1
293.15 K | 1099.2 ± 16 | 1128.63 ± 15 | 1159.82 ± 13 | 1189.04 ± 11 | 1220.08 ± 9.1 | 1249.42 ± 7.5 | 1278.97 ± 6.4 | 1308.93 ± 5.6 | 1339.9 ± 4.9 | 1370.73 ± 4
298.15 K | 1092.76 ± 17 | 1122.91 ± 15 | 1154.74 ± 13 | 1183.63 ± 11 | 1214.03 ± 9.1 | 1244.28 ± 7.6 | 1274.43 ± 6.4 | 1303.88 ± 5.5 | 1335.38 ± 4.9 | 1366.5 ± 4
303.15 K | 1086.29 ± 17 | 1116.15 ± 15 | 1148.32 ± 13 | 1177.52 ± 11 | 1208.51 ± 9.2 | 1238.99 ± 7.7 | 1269.31 ± 6.4 | 1298.92 ± 5.5 | 1330.3 ± 4.9 | 1361.63 ± 4
308.15 K | 1080.03 ± 17 | 1110.74 ± 15 | 1142.49 ± 13 | 1173.19 ± 11 | 1203.38 ± 9.2 | 1234.34 ± 7.8 | 1265.31 ± 6.5 | 1295.41 ± 5.6 | 1327.51 ± 4.9 | 1359.45 ± 4
313.15 K | 1073.79 ± 17 | 1104.95 ± 15 | 1136.01 ± 13 | 1167.14 ± 11 | 1197.82 ± 9.2 | 1229.08 ± 7.8 | 1260.15 ± 6.5 | 1290.91 ± 5.6 | 1322.98 ± 4.9 | 1355.23 ± 4
318.15 K | 1067.23 ± 17 | 1098.5 ± 15 | 1130.22 ± 13 | 1161.77 ± 11 | 1192.91 ± 9.3 | 1224.39 ± 7.8 | 1255.4 ± 6.6 | 1286.76 ± 5.7 | 1318.91 ± 5 | 1351.63 ± 4
323.15 K | 1060.39 ± 17 | 1092.27 ± 16 | 1125.56 ± 13 | 1156.96 ± 11 | 1187.95 ± 9.3 | 1219.55 ± 7.9 | 1250.82 ± 6.6 | 1282.14 ± 5.7 | 1314.13 ± 5 | 1347.23 ± 4
